Data reported in publication PMC8062632, “Structural studies of phosphorylation-dependent interactions between the V2R receptor and arrestin-2” (Nature Communications, 2021).

How the values were obtained:
Assay in all cases: FlAsH-BRET recruitment of c-Raf-1 to arrestin2
Type in all cases: cell-based
V2R-1 (V2R-T347A) = conditions: HEK293 cells; for ΔBRET ratio, c-Raf-1 recruitment to arrestin2: V2R-1, Argipressin 10 μM, 37 °C, 10 min
Description: (§1) The interaction between arrestin2 and c-Raf-1 was measured by the FlAsH-BRET method. […] Data are expressed as relative values of ΔBRET ratio with the mean ± SEM of three independent experiments (n = 3). […] Source data are provided in the Source. Data file.
(§2) After 24 h of transfection, the cells were detached and distributed into 96-well plates at a density of ~25,000 cells per well. After another 24 h incubation at 37 °C, the cells were labeled FlAsH-EDT2 for 40 min at 37 °C and washed twice with Tyrode’s buffer (140 mM NaCl, 2.7 mM KCl, 1 mM CaCl2, 12 mM NaHCO3, 5.6 mM D-glucose, 0.5 mM MgCl2, 0.37 mM NaH2PO4, and 25 mM HEPES, pH = 7.4) and stimulated with or without Argipressin (final concentration of 10 μM) at 37 °C for 10 min Luciferase substrate coelenterazine-h was added at a final concentration of 5 μM before light emissions were recorded using a Mithras LB940 microplate reader (Berthold Technologies) equipped with BRET filter sets. The BRET signal was determined by calculating the ratio of the light intensity emitted by YFP ([…]) over the light intensity emitted by Rluc ([…]). Source data are provided in a Source Data file.

V2R-4 (V2R-T360A) = conditions: HEK293 cells, Argipressin 10 μM, 37 °C, 10 min
Description: as §1, §2

[1] = system: V2R-6-7 (V2R-S363A/S364A); conditions: HEK293 cells; for ΔBRET ratio, c-Raf-1 recruitment to arrestin2: V2R-6-7, Argipressin 10 μM, 37 °C, 10 min
Description: as §1, §2

vasopressin
c-Raf-1 recruited to arrestin, compared with wild-type V2 receptor (V2R-1 (V2R-T347A); T347A mutant of the V2 receptor, in words): significantly less
ΔBRET ratio, c-Raf-1 recruitment to arrestin2 (V2R-1 (V2R-T347A); Data1): 0.006
ΔBRET ratio, c-Raf-1 recruitment to arrestin2 (V2R-1 (V2R-T347A); Data2): 0.002
ΔBRET ratio, c-Raf-1 recruitment to arrestin2 (V2R-1 (V2R-T347A); Data3): 0.005
ΔBRET ratio, c-Raf-1 recruitment to arrestin2 (V2R-4 (V2R-T360A); Data1): 0.001
ΔBRET ratio, c-Raf-1 recruitment to arrestin2 (V2R-4 (V2R-T360A); Data2): 0.001
ΔBRET ratio, c-Raf-1 recruitment to arrestin2 (V2R-4 (V2R-T360A); Data3): 0
vasopressin-induced interaction between c-Raf-1 and arrestin2 ([1]; S363A-S364A mutations in V2R, in words): abolished
ΔBRET ratio, c-Raf-1 recruitment to arrestin2 ([1]; Data1): 0
ΔBRET ratio, c-Raf-1 recruitment to arrestin2 ([1]; Data2): 0.001
ΔBRET ratio, c-Raf-1 recruitment to arrestin2 ([1]; Data3): 0
